From US20020142995A1, “Ammonium salts of hemoglobin allosteric effectors, and uses thereof” (priority 2000, published 2002)
Where “and” joins values, the source holds several entries; their conditions need not be identical. Equal values may be shown once. Read-outs that look alike come from different tables or passages of the source.

Columns and labels:
stripped hemoglobin = stripped hemoglobin (Homo sapiens, UniProt P68871); conditions: cited from earlier work
goldfish free hemoglobin = target: T1, goldfish free hemoglobin (Carassius auratus, UniProt P02018+P02140); assay: Oxygen dissociation curves of goldfish free hemoglobin with allosteric effectors; format: biochemical; design: unit not given beside the values
T1 construct: human and goldfish free hemoglobin controls; from tissue; host or cells: goldfish blood (erythrocyte hemoglobin freed from cells); inferred from 'free hemoglobin' beside 'whole blood'
T1 sequence (P02140 1-147): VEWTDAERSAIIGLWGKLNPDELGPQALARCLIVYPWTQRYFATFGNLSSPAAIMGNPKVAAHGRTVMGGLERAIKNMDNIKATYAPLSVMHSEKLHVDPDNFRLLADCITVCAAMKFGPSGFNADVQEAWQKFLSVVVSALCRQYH
T1 sequence (P02018 1-142): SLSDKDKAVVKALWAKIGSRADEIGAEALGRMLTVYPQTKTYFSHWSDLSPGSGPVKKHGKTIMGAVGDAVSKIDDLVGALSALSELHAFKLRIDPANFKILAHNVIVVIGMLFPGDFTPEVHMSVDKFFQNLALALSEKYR
Description: FIG. 3 tabulates the P50 values of human and goldfish whole blood controls, human and goldfish free hemoglobin controls, and goldfish free hemoglobin that has been pre-incubated with various allosteric effectors and an ammonium salt of one of them.
FIG. 5 depicts oxygen dissociation curves of human free hemoglobin (pH 7.1; […]), goldfish free hemoglobin (pH 7.1; P50=8.5), and goldfish free hemoglobin+0.25 μmol IHP (pH 7.1; P50=15.0).
FIG. 6 depicts oxygen dissociation curves of goldfish free hemoglobin+0.5 μmol PCHA-DPG (pH 7.1; P50=10.3), goldfish free hemoglobin+0.5 μmol ATP (pH 7.08; P50=21.0), and goldfish free hemoglobin+0.5 μmol GTP (pH 7.11; P50=23.0).

whole blood = assay: Blood oxygen dissociation (Hemox Analyzer) of whole blood pre-incubated with effector; format: cell-based; design: Observed P50: unit not given here; conditions: for change of the P50 of treated Red Blood Cells vs. control: observation, whole blood incubated with effector; for P50 of treated-washed RBC pellet vs. control: after resuspended in HBS
Description: Whole blood was collected from one subject. The blood was stored in a Vacutainer with Solution A (ACD) and stored at 4-8° C.
Effector characteristics prior to incubation were:
(see Summary of Results below).
Washes: After incubation of whole blood with/without effector, blood cells were washed four times with Saline buffer or HBS (BSA) by centrifugal pelleting to remove exogenous effector and to evaluate hemolysis. […]
Blood Oxygen Dissociation Reading: Blood Oxygen Dissociation of samples were determined using a Hemox Analizer Model B (TCS Medical Products Company, New Hope, Pa.) The sample chamber contained:
10-20 μL Pelleted Blood Cells incubated with Effector.
All readings were made at 36.7-37.2° C. and at pH 7.28-7.32. The P50S were calculated from the Dissociation Curves (see FIGS. 16-23) compared to same day control P50.

[1] = Visual appearance of effector solution; format: physicochemical
Description: Preparation of Effector Stock: Effector stock was prepared at 100-120 mM (Molal solution) using water or Bis-Tris Buffer.

Red Blood Cells = assay: Aggregation of red blood cells after incubation with effector; format: cell-based; conditions: whole blood incubated with effector
Description: Incubation: Whole blood (75-300 μL) was incubated with 200 μL of effector at 37° C. for 5-10 min. (see Summary of Results below).
Washes: After incubation of whole blood with/without effector, blood cells were washed four times with Saline buffer or HBS (BSA) by centrifugal pelleting to remove exogenous effector and to evaluate hemolysis. After final centrifugation, pellet was not resuspended.

human RBCs = conditions: IHP encapsulated in human RBCs by electroporation; cited from earlier work
[2] = target: allosteric site on hemoglobin (Homo sapiens, UniProt P68871); conditions: displaces hemoglobin-bound 2,3-DPG; cited from earlier work
[3] = goldfish free hemoglobin + 0.5 μmol effector, pH 7.08-7.11
[4] = 75 μL whole blood incubated (2-5 min) with 200 μL 30 mM effector, washed 4×, 15 μL RBC measured at 37° C.

stripped hemoglobin, sequence (P69905 2-142 partner limits assumed): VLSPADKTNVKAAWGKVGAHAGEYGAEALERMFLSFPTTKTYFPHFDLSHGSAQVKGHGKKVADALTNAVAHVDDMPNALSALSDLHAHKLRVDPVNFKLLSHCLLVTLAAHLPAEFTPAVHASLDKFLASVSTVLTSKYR
stripped hemoglobin, sequence (P68871 2-147 limits assumed): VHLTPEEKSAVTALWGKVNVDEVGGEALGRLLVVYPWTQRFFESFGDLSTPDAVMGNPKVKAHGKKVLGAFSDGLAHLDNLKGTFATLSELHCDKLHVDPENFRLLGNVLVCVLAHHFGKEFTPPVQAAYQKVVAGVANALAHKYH
allosteric site on hemoglobin, sequence (P69905 2-142 partner limits assumed): as the sequence (P69905 2-142 partner limits assumed) above
allosteric site on hemoglobin, sequence (P68871 2-147 limits assumed): as the sequence (P68871 2-147 limits assumed) above

| Compound | P50 (goldfish free hemoglobin; [3]) | Observed P50 (whole blood; [4]) | change of the P50 of treated Red Blood Cells vs. control (whole blood) | appearance of the solution [1] | aggregation of Red Blood Cells (Red Blood Cells) | further results |
| --- | --- | --- | --- | --- | --- | --- |
| O=C(O)C(COP(=O)(O)O)OP(=O)(O)O (stereo not drawn) [2,3-Diphosphoglycerate] | – | – | – | – | – | half-saturation pressure P(O2) (½) (stripped hemoglobin; pH 7.4, 25 C.): 12.0 mm Hg; half-saturation pressure P(O2) (½) (stripped hemoglobin; pH 7.4, 37 C.): 23.7 mm Hg |
| Nc1ncnc2c1ncn2[C@@H]1O[C@H](COP(=O)(O)OP(=O)(O)OP(=O)(O)O)[C@@H](O)[C@H]1O [ATP, adenosine triphosphate] | 21.0 | – | – | – | – | – |
| NC1CCCCC1 [CHA, Cyclohexylamine] | – | 28.5 and 26.8 | No change | visually clear | no aggregation | – |
| Nc1nc2c(ncn2[C@@H]2O[C@H](COP(=O)(O)OP(=O)(O)OP(=O)(O)O)[C@@H](O)[C@H]2O)c(=O)[nH]1 [GTP] | 23.0 | – | – | – | – | – |
| O=P(O)(O)O[C@H]1[C@H](OP(=O)(O)O)[C@@H](OP(=O)(O)O)[C@H](OP(=O)(O)O)[C@@H](OP(=O)(O)O)[C@H]1OP(=O)(O)O [IHP, myo-inositol hexakis (dehydrogen Phosphate)] | – | – | No change | visually clear | no aggregation | Observed P50 (whole blood; 75 μL whole blood + 200 μL 30 mM effector, 2-5 min, 37° C., Hypotonic, Osm: 185 mOsM): 37.5; P50 (goldfish free hemoglobin; goldfish free hemoglobin + 0.25 μmol effector, pH 7.1): 15.0; half-saturation pressure P(O2) (½) (stripped hemoglobin; pH 7.4, 25 C.): 48.4 mm Hg; half-saturation pressure P(O2) (½) (stripped hemoglobin; pH 7.4, 37 C.): 96.4 mm Hg; P50 of modified RBCs (human RBCs): approximately 50 torr; affinity for the allosteric site relative to 2,3-DPG [2]: one-thousand times greater affinity |
| NC1CCCCC1.NC1CCCCC1.NC1CCCCC1.NC1CCCCC1.NC1CCCCC1.O=C(O)[C@@H](COP(=O)(O)O)OP(=O)(O)O [PCHA-DPG, 2,3 Diphospho-D-Glyceric Acid (Pentacyclohexyclammonium salt)] | 10.3 | 50.5 and 47.3 and 36.0 | Increases the P50 | visually clear | no aggregation | P50 of treated-washed RBC pellet vs. control (whole blood): maintain higher P50 than the control |
| O=C([O-])[C@@H](COP(=O)([O-])[O-])OP(=O)([O-])[O-].[Na+].[Na+].[Na+].[Na+].[Na+] [PNa-DPG, 2,3 Diphospho-D-Glyceric Acid (Pentasodium salt)] | – | 38.2 | No change | visually clear | no aggregation | Observed P50 (whole blood; 75 μL whole blood + 200 μL 30 mM effector, 2-5 min, 37° C., Hypotonic, Osm: 163 mOsM): 37.5; Observed P50 (whole blood; 75 μL whole blood + 200 μL 30 mM effector, 2-5 min, 37° C., Isotonic, Osm: 321 mOsM): 39.6 |
| Cyclohexylammonium-Inositol Hexaphosphate [CHA-IHP] | – | 42.0 and 58.2 and 32.8 | Increases the P50 | visually clear | no aggregation | Observed P50 (whole blood; 75 μL whole blood + 200 μL 30 mM effector, washed 4×, cell pellet stored for 48 hrs at 4-8° C., measured at 37° C.): 50.5; P50 of treated-washed RBC pellet vs. control (whole blood): maintain higher P50 than the control; P50 EFF:WB (whole blood; same sample as FIG. 12C, evaluated 48 h later (stored at 4-8 C.), 25 mM, 171 mOsM): 50.5 mmHg |
